Assays:
[1] = system: mouse embryonic stem cells (ESCs); experiment: [U-13C] glucose tracing of TCA cycle metabolites in mouse embryonic stem cells; type: cell-based
Procedure: Metabolic analyses. […] For mass spectrometric analyses in C2C12 myoblasts and NSCLC cell lines, cells were seeded in six-well plates and medium was changed 24 h later. […] 48 h prior to harvest, myoblasts were supplemented with 1 μg/mL doxycycline to induce shRNA expression. For analysis of myotubes, cells seeded in six-well plates were grown to 100% confluence for 3 days, washed with PBS and changed to differentiation medium that was refreshed every day for 7 days. On the final day of differentiation, cells were washed with PBS and changed to experimental medium described above. For analysis of C2C12 myotube genetic hairpin lines, cells were processed as described above but medium was supplemented with 1 μg/mL doxycycline for the final four days of differentiation to induce shRNA expression. ESCs and NSCLC lines treated with inhibitors were processed as described above but medium was supplemented with DMSO, 50 μM BMS-303141 (catalog no. SML0784; […] Sigma) or 10 μM UK-5099 (catalog no. 4186; Tocris) for 24 h prior to harvest. […] After overnight incubation at -80° C., lysates were collected and centrifuged at 21,000 g for 20 min to remove protein. All extracts were further processed by LCMS (for analysis of NADH, lactate and pyruvate (deuterium labeling and lactate/pyruvate ratio) and succinate (deuterium labeling only) or GCMS (for all other analyses) as described below. Gas chromatography-mass spectrometry. […] Metabolites were further derivatized by adding 80 μl of N-methyl-N-(trimethylsilyl) trifluoroacetamide+1% TCMS (Thermo Fisher Scientific) and 70 μl ethyl acetate (Sigma-Aldrich) and then incubated at 37° C. for 30 min. Samples were analyzed using an Agilent 7890A Gas Chromatograph coupled to an Agilent […] mass selective detector. The gas chromatograph was operated in splitless injection mode with constant helium gas flow at 1 ml min^-1; 1 μl of derivatized metabolites was injected onto an HP-5 ms column and the gas chromatograph oven temperature ramped from 60 to 290° C. for 25 min. Peaks representing compounds of interest were extracted and integrated using the MassHunter software v.B.08 (Agilent Technologies) and then normalized to both the internal standard (d5-2HG) peak area and protein content of triplicate samples as determined by bicinchoninic acid assay (Thermo Fisher Scientific). Steady-state metabolite pool levels were derived by quantifying the following ions: d5-2HG, 354 m/z; αKG, 304 […]; citrate, 465 m/z; fumarate, 245 m/z; malate, 335 m/z; and succinate, 247 m/z. All peaks were manually inspected and verified relative to known spectra for each metabolite. Enrichment of [^13C] or [^2H] was assessed by quantifying the abundance of the following ions: aspartate, 334-346 m/z; citrate, 465-482 m/z; fumarate, 245-254 m/z; and malate, 335-347 m/z. […]

C2C12 myoblasts = experiment: [U-13C] glucose tracing of TCA cycle metabolites in C2C12 myoblasts; type: cell-based, mouse
Procedure: C2C12 cells were maintained at sub-confluence as myoblasts unless otherwise noted. All myoblast experiments were performed in high glucose DMEM supplemented with 10% FBS and 4 mM L-glutamine. For differentiation into myotubes, C2C12 cells were grown to 100% confluence for three days and then washed with PBS and changed into differentiation medium composed of high glucose DMEM supplemented with 2% horse serum (catalog no. 26050070; Gibco), 4 mM L-glutamine and 100× insulin-transferrin-selenium-ethanolamine (ITS-X; catalog no. 51500056; Gibco) for the indicated length of time (3, 5 or 7 days). Differentiation medium was refreshed every day. For non-small cell lung cancer (NSCLC) cell line studies, H2170, A549, and Calu-1 cell lines were thawed and passaged in RPMI-1640 supplemented with 10% FBS before being transitioned to high glucose DMEM supplemented with 10% FBS and 4 mM L-glutamine for several passages prior to experiments. […]
(§1) Gas chromatography-mass spectrometry. […] Samples were analyzed using an Agilent 7890A Gas Chromatograph coupled to an Agilent 5977C mass selective detector. […] Peaks representing compounds of interest were extracted and integrated using the MassHunter software v.B.08 (Agilent Technologies) and then normalized to both the internal standard (d5-2HG) peak area and protein content of triplicate samples as determined by bicinchoninic acid assay (Thermo Fisher Scientific). […]

[2] = system: non-small cell lung cancer (NSCLC) cell lines (H2170, A549, Calu-1); experiment: Isotope tracing ([U-13C] glucose or [U-13C] glutamine) of TCA cycle metabolites in NSCLC cell lines; type: cell-based, human; details: 50 μM for 24 h
Procedure: C2C12 cells were maintained at sub-confluence as myoblasts unless otherwise noted. All myoblast experiments were performed in high glucose DMEM supplemented with 10% FBS and 4 mM L-glutamine. For differentiation into myotubes, C2C12 cells were grown to 100% confluence for three days and then washed with PBS and changed into differentiation medium composed of high glucose DMEM supplemented with 2% horse serum (catalog no. 26050070; Gibco), 4 mM L-glutamine and 100× insulin-transferrin-selenium-ethanolamine (ITS-X; catalog no. 51500056; Gibco) for the indicated length of time (3, 5 or 7 days). Differentiation medium was refreshed every day. For non-small cell lung cancer (NSCLC) cell line studies, H2170, A549, and Calu-1 cell lines were thawed and passaged in RPMI-1640 supplemented with 10% FBS before being transitioned to high glucose DMEM supplemented with 10% FBS and 4 mM L-glutamine for several passages prior to experiments. 143B cells were maintained in high glucose DMEM supplemented with sodium pyruvate, 10% FBS and penicillin-streptomycin. All cells routinely tested negative for Mycoplasma.
For mass spectrometric analyses in C2C12 myoblasts and NSCLC cell lines, cells were seeded in six-well plates and medium was changed 24 h later. […] 48 h prior to harvest, myoblasts were supplemented with 1 μg/mL doxycycline to induce shRNA expression. For analysis of myotubes, cells seeded in six-well plates were grown to 100% confluence for 3 days, washed with PBS and changed to differentiation medium that was refreshed every day for 7 days. On the final day of differentiation, cells were washed with PBS and changed to experimental medium described above. For analysis of C2C12 myotube genetic hairpin lines, cells were processed as described above but medium was supplemented with 1 μg/mL doxycycline for the final four days of differentiation to induce shRNA expression. ESCs and NSCLC lines treated with inhibitors were processed as described above but medium was supplemented with DMSO, 50 μM BMS-303141 (catalog no. SML0784; Sigma), 5 mM dichloroacetate (catalog no. 3447795; Sigma) or 10 μM UK-5099 (catalog no. 4186; Tocris) for 24 h prior to harvest. At harvest, metabolites were extracted with 1 mL ice-cold 80% methanol containing 2 μM deuterated 2-hydroxyglutaratc (d-2-hydroxyglutaric-2,3,3,4,4-d5 acid (d5-2HG)). […]
as §1

[3] = system: ASNase-expressing 143B human osteosarcoma cells; experiment: [U-13C] asparagine tracing in ASNase-expressing 143B cells; type: cell-based; details: 50 μM for 24 h (FIGS. 6E and 6F)
Procedure: 143B cells were plated in six-well plates; 24 h later, media was changed to DMEM supplemented with 10% dialyzed FBS, 1 mM asparagine and DMSO or 50 μM BMS-303141. After 20 h, media was changed to DMEM supplemented with 10% dialyzed FBS, 1 mM [U-^13C]asparagine and DMSO or 50 μM BMS-303141. Cells were extracted with 300 μL 80% methanol containing Valine-D8 as an internal control. 143B extracts were further processed by LCMS, described below.
Liquid chromatography-mass spectrometry.

Rex1::GFPd2 ESCs = experiment: Exit from naïve pluripotency, Rex1::GFPd2 reporter analysis; type: cell-based, mouse; details: 2i/LIF withdrawal for 40 h; 50 μM (FIG. 4I)
Procedure: 2i/LIF-cultured ESCs were seeded at least 24 h prior to being washed with PBS and changed into serum-free maintenance medium without 2i or LIF at the indicated time before harvest (12, 24 or 40 h). Unless otherwise noted, cells were adapted to serum/LIF+2i culture prior to exit from naïve pluripotency.
Rex1::GFPd2 analysis. On the day of analysis, cells were trypsinized and resuspended in FACS buffer (PBS+2% FBS+1 mM EDTA) containing 4,6-diamidino-2-phenylindole (DAPI, 1 μg/mL). […] Viable cells were those excluding DAPI. Rex1::GFPd2 expression was measured by GFP mean fluorescence intensity (MFI) and quantified using FCS Express v7.0.5 or FlowJo v10.8.0.

Acly-edited ESCs [4] = details: 2i/LIF withdrawal for 40 h; 5 mM sodium acetate (FIG. 12F)
Procedure: Viability assays. Serum/LIF+2i-adapted ESCs were seeded at a density of 24,000 cells per well of a 24-well plate in triplicate or quadruplicate. 24 h later, cells were washed with PBS and changed into either fresh scrum/LIF+2i medium or medium containing a 1:1 mix of glutamine-free DMEM and Neurobasal medium including N-2 supplement, B-27 supplement, 2-mercaptoethanol and 2 mM L-glutamine for 40 h. Cells were evaluated for propidium iodide (PI) on an LSRFortessa flow cytometer using FACSDiva software v8.0 (BD Biosciences). Analysis of PI exclusion was performed with FCS Express v.7.05 or FlowJo v10.8.0.

[5] = system: control and Acly-edited ESCs
Procedure: Quantification of gene expression. RNA was isolated from six-or twelve-well plates using TRIzol (Invitrogen) according to the manufacturer's instructions and 200 ng RNA was used for complementary DNA (cDNA) synthesis using the iScript cDNA Synthesis Kit (Bio-Rad). Quantitative real-time PCR analysis was performed in technical triplicate using QuantStudio 5 or 6 Flex (Applied Biosystems) with Power SYBR Green Master Mix (Thermo Fisher Scientific). All data were generated using cDNA from 3 independent wells for each condition. Actin was used as an endogenous control for all experiments. See Supplementary Table 1 for qRT-PCR primer sequences.

[6] = system: control and Acly-edited ESCs; details: 2i/LIF withdrawal for 40 h with 5 mM sodium acetate, reseeded into 2i and LIF (FIG. 12K)
Source text: Colony formation assay. […] Medium was refreshed every 3 days.

Acly-edited ESCs [7] = details: 2i/LIF withdrawal for 40 h, 5 mM sodium acetate (FIG. 12E)
Source text: Western blotting. Protein lysates were extracted in 1×RIPA buffer (Cell Signaling Technology), separated by SDS-polyacrylamide gel electrophoresis and transferred to nitrocellulose membranes (Bio-Rad). For histone blots, cell pellets were flash frozen in ethanol and resuspended in Laemmli buffer for sonication. Samples were mixed with 5% BME and 0.01% bromophenol blue prior to identical separation as for protein lysates. Membranes were blocked in 3% milk in Tris-buffered saline with 0.1% Tween 20 (TBST) or 5% BSA in TBST and incubated at 4° C. with primary antibodies overnight. After TBST washes the next day, membranes were incubated with horseradish peroxidase-conjugated secondary antibodies for at least 2 h, incubated with enhanced chemiluminescence (Thermo Fisher Scientific) and imaged with an SRX-101A X-ray Film Processor (Konica Minolta). […]

[8] = system: control and Acly-edited ESCs; details: labeled acetate, 5 mM; 40 h of 2i/LIF withdrawal (FIG. 12D)
Procedure: Fatty acid analyses. To analyze fatty acids in scrum/LIF+2i-cultured ESCs undergoing exit from pluripotency, ESCs were seeded in maintenance medium in six-well plates overnight. The next day, cells were washed with PBS and changed into medium containing a 1:1 mix of glutamine-free DMEM and Neurobasal medium including N-2 supplement, B-27 supplement, 2-mercaptoethanol and 2 mM L-glutamine. […] At harvest, lysates were collected in PBS and centrifuged at 6,800 g for 5 min to pellet cells. To isolate fatty acids, cell pellets were resuspended in 400 μl HPLC grade methanol followed by 800 μl HPLC grade chloroform and samples were vortexed for 10 min at 4° C. 300 μl HPLC grade water then added to induce phase separation. 800 μl of the bottom chloroform layer was moved to a new tube and lyophilized. Dried samples were saponified by resuspending in 1 ml of 80% methanol with 0.3 M KOH and heating at 80° C. for 1 h in a glass vial. […]
Liquid chromatography-mass spectrometry. […] Metabolite quantitation was performed using a Q Exactive HF-X Hybrid Quadrupole-Orbitrap Mass Spectrometer equipped with an Ion Max API source and H-ESI II probe, coupled to a Vanquish Flex Binary UHPLC system (Thermo Scientific). […] Metabolites were detected over mass range of 70-1050 m/z in full scan positive mode, or SIM in positive mode using a quadrupole isolation window of 0.7 m/z. […]

ESC = details: previous reports (ref 39); cited from earlier work
[9] = [U-13C] glucose, three NSCLC cell lines (FIG. 6B)

N#C/C(=C\c1cn(-c2ccccc2)c2ccccc12)C(=O)O [UK-5099]
incorporation of glucose-derived carbons into TCA cycle metabolites ([1]; ESCs, 10 μM UK-5099 (MPCi) for 24 h (FIG. 10E)): reduced | mal+2/cit+2 ratio ([1]; ESCs, 10 μM UK-5099 (MPCi) for 24 h (FIG. 10F)): repressed | incorporation of glucose-derived carbons into TCA cycle metabolites (C2C12 myoblasts; 10 μM UK-5099 (MPCi) for 24 h (FIG. 10C)): reduced | mal+2/cit+2 ratio (C2C12 myoblasts; 10 μM UK-5099 (MPCi) for 24 h (FIG. 10D)): repressed

COc1ccc(-c2ccccc2)cc1NS(=O)(=O)c1cc(Cl)cc(Cl)c1O [BMS-303141]
mal+2/cit+2 ratio ([2]; [U-13C] glucose, three NSCLC cell lines (FIG. 1E)): increased | fraction of citrate m+2 [2, 9]: only a minor effect | proportion of malate containing two labeled carbons (malate m+2) [2, 9]: increased | glutamine anaplerosis ([2]; [U-13C] glutamine, three NSCLC cell lines (FIG. 6C)): did not uniformly affect | ratio of cit+2/cit+4 [3]: significantly increased | decrease in enrichment of the m+2 isotopologue of malate relative to citrate (Mal+2/Cit+2) ([1]; [U-13C] glucose, serum/LIF ESCs, 50 μM for 24 h (FIG. 2B)): mitigated | downregulation of Rex1::GFPd2 reporter activity following 2i/LIF withdrawal (Rex1::GFPd2 ESCs): almost completely prevented

CC(=O)[O-].[Na+] [acetate, sodium acetate]
processivity (malate m+2/citrate m+2 ratio) ([1]; S/L-cultured ESCs, 5 mM sodium acetate for 24 h (FIGS. 15A-15D)): enhances | decline in viability observed in Acly-edited clones (Acly-edited ESCs [4]): only minimally rescued | markers of naïve pluripotency ([5]; 2i/LIF withdrawal for 40 h, 5 mM sodium acetate (FIGS. 12I-12J)): tended to increase | effects of ACL loss on exit from pluripotency ([5]; Acly-edited ESCs, 5 mM sodium acetate, qRT-PCR, Rex1::GFPd2 MFI and AP-positive colonies (FIGS. 12I-12K)): does not reverse | colony formation ability (AP-positive colonies) [6]: tended to increase | histone acetylation (Acly-edited ESCs [7]): restored | de novo lipid synthesis (fractional labeling of palmitate) [8]: contributed | ESC self-renewal (ESC): promotes

From patent publication US20240392239A1, “METHODS FOR MODULATING CELL PLURIPOTENCY AND SELF-RENEWAL PROPERTY” (Memorial Sloan-Kettering Cancer Center, priority 2021, published 2024)
